Consider three molecules from patent publication US6423519B1, “Compositions and methods for inhibiting fungal growth” (GPC Biotech Inc., priority 1998, dated 2002).

Converted amounts (≈) assume the structure as drawn. Where two headings read alike, the source gives them in different places.

One may read the IC50 as the concentration at which inhibition is half-maximal.

For assay [1], the system named is H460 Cell Line. In words: Cytotoxicity of GGPTase inhibitors in human cells, H460 (Sulforhodamine B). The assay is classed as cell-based. Here is the method: (§1) (A) Plate out cells at predetermined concentration in a volume of 150 μl.
(§2) (B) Allow cells to adhere to plate for twenty four hours
(§3) (C) Add compounds to cells at predetermined concentration (62.5 μg/mL down four-fold, 8 dilutions) n=2
(§4) (D) Cells are exposed to drug for 7 days for the IMR90 Cell Line, and a period of 3 days for the H460 Cell Line.
(E) 1. H460 Cells are fixed in TCA, rinsed, stained with Sulforhodamine B stain, and the stain is solubilized for a final OD read.

Assay [2] addresses human GGTase (Homo sapiens, UniProt P53609). Nature of the assay: Human GGTase inhibition (Hu GG). The assay is classed as biochemical. The text has this:
As described below, a variety of different compounds were synthesized and tested for inhibitory activity against human and Candida GGTase. Exemplary synthesis schemes for generating prenyltransferase inhibitors useful in the methods and compositions of the present invention are shown in FIGS. 1-56. Tables 1-5 provide Structure-Activity relationship (SAR) data for several different classes of prenyltransferase inhibitors.

Assay [3] deals with IMR90 Cell Line. Nature of the assay: Cytotoxicity of GGPTase inhibitors in human cells, IMR90 (MTT). The assay is classed as cell-based. Here is the method: as §1, §2, §3, §4
2. IMR90 Cells have 3-{4,5-Dimethylthiazol-2-yl}-2,5-diphenyltetrazolium bromide (MTT) added to them for three hours prior to final read out. After the three hours, media and MTT are removed and MTT crystals are solubilized in 100% DMSO for final OD read.

For assay [4], the target named is T1, C. albicans GGPTase (Candida albicans, UniProt Q8J224+Q9Y764).
T1 sequence (Q9Y764 1-398): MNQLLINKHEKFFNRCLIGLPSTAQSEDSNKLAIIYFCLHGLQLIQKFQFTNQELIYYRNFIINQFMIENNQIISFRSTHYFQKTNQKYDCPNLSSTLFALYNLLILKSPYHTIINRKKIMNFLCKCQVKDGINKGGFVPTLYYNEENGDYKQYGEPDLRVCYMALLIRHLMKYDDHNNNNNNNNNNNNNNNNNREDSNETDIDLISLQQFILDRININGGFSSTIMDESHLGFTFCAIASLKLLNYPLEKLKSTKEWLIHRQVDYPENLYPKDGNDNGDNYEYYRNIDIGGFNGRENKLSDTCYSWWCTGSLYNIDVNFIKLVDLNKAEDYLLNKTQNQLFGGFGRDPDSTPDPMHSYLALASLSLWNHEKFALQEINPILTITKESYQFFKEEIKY
T1 sequence (Q8J224 1-306): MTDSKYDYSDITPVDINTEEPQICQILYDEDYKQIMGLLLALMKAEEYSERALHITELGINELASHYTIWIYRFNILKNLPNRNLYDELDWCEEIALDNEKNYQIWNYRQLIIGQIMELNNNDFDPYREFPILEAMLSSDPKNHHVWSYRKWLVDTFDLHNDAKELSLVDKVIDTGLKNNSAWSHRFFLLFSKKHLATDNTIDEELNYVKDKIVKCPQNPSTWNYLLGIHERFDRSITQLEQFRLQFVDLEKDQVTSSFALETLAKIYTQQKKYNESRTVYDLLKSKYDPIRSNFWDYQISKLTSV
In words: biochemical. Here is the method:
Plate test compounds (10 μL per well) at predetermined concentration in 50% DMSO. For background control (blank) and reaction control (negative), add 10 μL of 200 μM GGPP and 10 μL 50% DMSO, respectively. Prepare assay buffer: 50 mM Tris, pH7.5, 20 mM KCL, 5 mM MgCl2, 5 μM ZnCl2, 0.5 mM Zw(3-14), 2 mM DTT and 0.1 mg/mL BSA.
Add 20 μL of C. albicans GGPTase and ^3H-GGPP in assay buffer to test compound. Preincubate enzyme and ^3H-GGPP with test compound for 15 minutes at room temperature. Add 20 μL C. albicans Rho in assay buffer. Incubate for 30 minutes at room temperature. Final assay conditions are 2 nM C. albicans GGPTase, 250 nM ^3H-GGPP and 250 nM C. albicans Rho.
Add 100 μL 15 mM GGPP, 50 mM Tris, pH7.0 and 2% BSA to quench reaction. Transfer reaction to Nickel chelate FlashPlate. Allow his-tagged C. albcians Rho to capture onto plate. Rinse plate 1× with 200 μL 20 mM Tris, pH7.0. Read in TOPCOUNT.

Assay [5] concerns MycCaRHO1. Nature of the assay: Prenylation state / localisation of newly synthesized MycCaRHO1 (fractionation, Western blot). Particulars: 3 μg/ml, strain DIY-BL2-058, versus mock (DMSO) treated cells. The assay is classed as cell-based, C. albicans. As for the experimental part: To look at the effect of GGPTase I inhibitors in vivo a recombinant C. albicans strain engineered to express a Myc tagged CaRHO1 under the control of the C. albicans phosphoenolpyruvate carboxykinase 1 (PCK1) promoter is used. This promoter is repressed by glucose and derepressed by gluconeogenic carbon sources such as succinate. It should also be possible to be look at the endogenous substrates of the GGPTase I. Cells are treated with a sublethal dose of compound for a period of time which has been established from a kill curve analysis in the appropriate media. After the treatment time, cells are harvested and whole cell extracts (WCE) made, these extracts are then resolved by high speed centrifugation into cytosolic and membrane fractions. Visualisation of the localisation of the MycCaRHO1 is achieved by sodium dodecyl sulfate-polyacrylamide gel electrophoresis (SDS-PAGE) and Western blotting. […]
Cells of strain DIY-BL2-058 were grown overnight in YNB supplemented with 1 μg/ml histidine, 2 μg/ml methionine, 2 μg/ml tryptophan, 200 μg/ml glutamine and 2% glucose at 220 rpm at 31° C. The cell number was then determined, cells were pelleted by centrifugation and resuspended in fresh media at a density of 1×10^7 cells/ml and incubated as above. […]
Fractions were thawed on ice. The protein concentration was determined using the standard Bradford method for the WCEs and cytosolic fraction. […]
On the technique in general: A western blot detects proteins with antibodies after separation by electrophoresis.

The test system of assay [6] is C. albicans. Nature of the assay: Determination of minimum fungicidal concentration (MFC). The assay is classed as cell-based. Particulars: Candida albicans. Here is the method:
After the required time course for the MIC determination, the minimum fungicidal concentration can then be determined by plating out the entire contents of the well of the microtitre plates onto YPD or Sabourand plates. These plates are then incubated at 35° C. for 24-48 hrs. The MFC corresponds to the concentration of compound where no cellular growth is observed on the plate. For compound 99a, and MFC was calculated of 2 μg/ml.

Setting [7] is: NCI-H460, 72 h, read-out: IC50 (nM) H460.
[8] abbreviates: Table 3 Piperidine Analogs, read-out: IC50 (nM) Hu GG.
Where [9] appears, read: IMR-90, 168 h, read-out: IC50 (nM) IMR90.
Setting [10] is: Table 3 Piperidine Analogs, read-out: IC50 (nM) Ca GG.

Take `C[C@H](N)C(=O)N[C@@H](CS)C(=O)N1CCC(C(=O)NCc2ccncc2)(c2ccccc2)CC1` [Compound 96a]: the 50% inhibitory concentration (IC50) in assay [1] (setting [7]), in assay [2] (setting [8]), in assay [3] (setting [9]) and in assay [4] (setting [10]) was more than 1000 nM each time.
Take `CC(C)C[C@H](NC(=O)C1(c2ccccc2)CCN(C(=O)[C@@H](N)CS)CC1)C(=O)N[C@@H](C)C(=O)O` [Compound 99a]: the “abundance of MycCaRHO1 in the cytosolic fraction (FIG. 57)” value in assay [5] was “increases the abundance of MycCaRHO1 in the cytosolic fraction”. Moreover, the IC50 is more than 10000 nM in assay [1] (NCI-H460, read-out: Human cell IC50 (nM) H460); more than 500 nM in assay [2] (setting [8]); more than 500 nM in assay [2] (Table 5, read-out: IC50 (nM) Human); more than 10000 nM in assay [3] (IMR-90, read-out: Human cell IC50 (nM) IMR90); less than 50 nM in assay [4] (setting [10]); less than 50 nM in assay [4] (Table 5, read-out: IC50 (nM) Candida). Further, the MFC in assay [6] (read-out: Candida MFC (g/mL)) and in assay [6] (read-out: MFC) was 2 µg/mL (≈ 4.06 µM) each time.
As for `C[C@H](N)C(=O)N[C@@H](C)C(=O)N[C@@H](CS)C(=O)N1CCC(C(=O)NCc2ccncc2)(c2ccccc2)CC1` [Compound 96b], the 50% inhibitory concentration (IC50) is more than 1000 nM in assay [1] (setting [7]), more than 1000 nM in assay [2] (setting [8]), more than 1000 nM in assay [3] (setting [9]) and less than 1000 nM in assay [4] (setting [10]).
